Experimental data as given in patent US20240294545A1 (CSPC Zhongqi Pharmaceutical Technology (Shijiazhuang) Co., …, priority 2020, published 2024).
Where two headings read alike, the source gives them in different places. Marks after values point to notes of the source that are not given here.

Key:
ATM = ATM (Homo sapiens (Human), UniProt Q13315); assay: Caliper mobility shift assay for ATM; format: biochemical; details: read-out: IC50 of inhibitory activity on ATM kinase
Method: 1.2 Determination of the Inhibitory Activities of Compounds on ATM: Caliper Mobility Shift Assay for ATM
To a 96-well plate, 98 μL of DMSO and 2 μL of the 10 mM stock solution were added and mixed evenly so that the concentration of the solution was 200 μM.
Based on the inhibitory rates of the compound at different concentrations, IC50 was calculated according to the formula: Y=Bottom+(Top−Bottom)/(1+(IC50/X)^HillSlope).

[1] = tested on: subcutaneous xenograft tumor of human colon cancer cell line HT-29; assay: HT-29 subcutaneous xenograft, combined with irinotecan liposome injection; format: in vivo, NU/NU mice; details: for inhibitory effect on tumor volume and tumor weight, in words: combined with irinotecan liposome injection, compared with AZD1390; for D 16 TGI / D 16 TV (MEAN ± SD) / Tumor weight / Tumor weight inhibitory rate: compound 25 mg/kg intragastric + irinotecan liposome 10 mg/kg ip; for D 16 TGI / D 16 TV (MEAN ± SD): day 16; for Tumor weight / Tumor weight inhibitory rate: end of test
Method: 7 Efficacy Test of the Compounds of the Present Disclosure Combined with Irinotecan Liposome Injection on Inhibiting the Growth of Subcutaneous Xenograft Tumor of Human Colon Cancer Cell Line HT-29
7.1 Experimental Animals: NU/NU Mice, SPF, Female, 20 to 30 g.
Irinotecan liposome injection (HE072), 43 mg: 10 mL, milky white liquid, batch No. B37191202, provided by Preparation Research Institute 2 from CSPC Zhongqi Pharmaceutical Technology (Shijiazhuang) Co., Ltd., diluted to an appropriate concentration with 5% glucose injection while testing.
HT-29 cell, provided by Nanjing Kebai Biotechnology Co., Ltd.; 5A culture medium:fetal bovine serum=90%:10%, 37° C., 5% CO2.
NU/NU nude mice were subcutaneously inoculated with HT-29 human colon cancer cells. When the mean tumor volume reached about 170 mm^3 (9 days after inoculation), the animals were evenly divided into groups according to the tumor volume (d0), with 6 mice in each group. 10 mg/kg of HE072 was administered intraperitoneally once a week for 1 time. Vehicle control, 25 mg/kg of A-6, 25 mg/kg of A-46, and 25 mg/kg of AZD1390 were administered intragastrically once a day, from Monday to Thursday every week except Friday to Sunday, for 1 week (4 times). The tumor volume was measured twice a week, the body weight of mouse was weighed every day, and the data were recorded. The tumor volume (TV) was calculated according to the formula: TV=½×a×b2, wherein a and b represent the long and short diameters of tumor, respectively. Tumor growth inhibitory rate TGI (%)=[1−(Ti−T0)/(Vi−V0)]×100, wherein Ti represents the mean tumor volume of a given treatment group on a certain day; TO represents the mean tumor volume of this treatment group at the beginning of administration; Vi represents the mean tumor volume of the vehicle control group on a certain day (the same day as that in Ti); V0 represents the mean tumor volume of the vehicle control group at the beginning of administration. At the end of the test (d17), the animals were sacrificed, the tumors were stripped and weighed, and the tumor weight inhibitory rates were calculated.

[2] = tested on: subcutaneous xenograft tumor of human glioblastoma LN-18; assay: LN-18 subcutaneous xenograft, combined with radiotherapy; format: in vivo, NOG mice; details: day 17
Method: 9 Efficacy Test of the Compounds of the Present Disclosure Combined with Radiotherapy on Inhibiting the Growth of Subcutaneous Xenograft Tumor of Human Glioblastoma LN-18
9.1 Experimental Animals: NOG Mice, SPF, Female, 18 to 22 g.
LN-18 tumor cells, DMEM medium:fetal bovine serum=95%:5%, accompanied by adding 100 U/mL penicillin and 100 μg/mL streptomycin, 37° C., 5% CO2.
LN18 tumor cells resuspended in serum-free DMEM medium were inoculated subcutaneously in the right costal region of experimental animals at 1.5*10^7/0.15 mL, and the animals were grouped when the tumor grew to 100 to 150 mm^3. Radiotherapy was performed 1 h after administration of compounds.
Tumor volume: The tumor volume was measured twice a week with a vernier caliper, and the long diameter and short diameter of tumor were measured. The tumor volume was calculated as follows: tumor volume (TV)=0.5×long diameter×short diameter^2. Tumor growth inhibitory rate (TGI %) was calculated according to the tumor volume. TVXn represents the mean tumor volume on day n of the treatment group, TVX0 represents the mean tumor volume on day 0 of the treatment group, TVMn represents the mean tumor volume on day n of the control group, and TVM0 represents the mean tumor volume on day 0 of the control group.

ATM-phosphorylated KAP1 = assay: Intracellular ATM-phosphorylated KAP1 level, ICW assay in MCF7 cells; format: cell-based, Human; details: MCF7 cells, 2 h compound, 10 Gy irradiation, further 1 h, read-out: pKAP1 IC50
Method: 4 Inhibition on Intracellular ATM-Phosphorylated KAP1 Level by the Compounds of the Present Disclosure: ICW Assay
• Cell: Human breast cancer cell line MCF7 • Materials and reagents:
4.2 Experimental Procedures
• (1) Cell inoculation • MCF7 cells were inoculated on a 384-well plate, 10000 cells/well (25 μL/well), and cultured overnight at 37° C. with 5% CO2. • (2) Activity detection • 1) The compound was formulated into a 100 mM solution with DMSO and then sequentially diluted with a gradient of 1:3 to yield a total of 10 concentration gradients, wherein the maximum concentration was 100 μM. • 2) 25 nL of each of the compound solutions with gradient concentrations prepared in step 1) was added to each well of the cell plate (Corning #356663) by using I-DOT One, resulting in a final concentration of 100 nM (maximum dose). • 3) The cell plate containing compound was incubated at 37° C. with 5% CO2 for 2 h. After 2 h, the cell plate was irradiated with a dose of 10 Gy, and then further incubated for 1 h. • 4) 25 μL of 8% paraformaldehyde was added to each well, followed by incubating at room temperature for 20 min. • 5) The 8% paraformaldehyde was discarded, followed by adding 0.1% TrintonX-100 and incubating at room temperature for 30 min. • 6) Odessey blocking buffer was added at 50 μL/well, followed by incubating at room temperature for 1.5 h. • 7) The Odessey blocking buffer was discarded, and then a primary antibody (Phospho-KAP1, 1:2000 dilution) was added, followed by incubating overnight at 4° C. • 8) The primary antibody was removed, followed by washing with PBS+0.1% Tween 20 for 5 times. • 9) DNA dye DRAQ5 coated with a second antibody (IRDye 800CW Goat anti-Rabbit, 1:4000 dilution) was added, followed by incubating at room temperature for 1 h. • 10) The second antibody was removed, followed by washing with PBS+0.1% Tween 20 for 5 times. • 11) PBS+0.1% Tween 20 was sucked off with Odyssey. • (3) Data analysis • 1) the relative ratio of Channel 800/Channel 700 for each well was detected. • 2) % of KAP1 phosphorylation was calculated according to the following formula:
% of KAP1 phosphorylation=[(Ratiocmpd−(Ratio)Positive)/((Ratio)Vehicle−(Ratio)Positive]*100 • (Ratio)Positive: the mean value of the test values of each positive control well in the test cell plate; • (Ratio)Vehicle: the mean value of the test values of each negative control well in the test cell plate. • 3) the IC50 of each compound was calculated and the dose-effect curve was plotted: % of KAP1 phosphorylation and log of compound's concentration were fit by using Graphpad 8.0 so as to calculate the IC50.
[formula] • X: log of compound's concentration • Y: % of KAP1 phosphorylation

[3] = compound 10 mg/kg intragastric qd × 5 + IR 1 Gy
[4] = compound 20 mg/kg intragastric qd × 5 + IR 1 Gy

ATM, sequence (Q13315 whole entry): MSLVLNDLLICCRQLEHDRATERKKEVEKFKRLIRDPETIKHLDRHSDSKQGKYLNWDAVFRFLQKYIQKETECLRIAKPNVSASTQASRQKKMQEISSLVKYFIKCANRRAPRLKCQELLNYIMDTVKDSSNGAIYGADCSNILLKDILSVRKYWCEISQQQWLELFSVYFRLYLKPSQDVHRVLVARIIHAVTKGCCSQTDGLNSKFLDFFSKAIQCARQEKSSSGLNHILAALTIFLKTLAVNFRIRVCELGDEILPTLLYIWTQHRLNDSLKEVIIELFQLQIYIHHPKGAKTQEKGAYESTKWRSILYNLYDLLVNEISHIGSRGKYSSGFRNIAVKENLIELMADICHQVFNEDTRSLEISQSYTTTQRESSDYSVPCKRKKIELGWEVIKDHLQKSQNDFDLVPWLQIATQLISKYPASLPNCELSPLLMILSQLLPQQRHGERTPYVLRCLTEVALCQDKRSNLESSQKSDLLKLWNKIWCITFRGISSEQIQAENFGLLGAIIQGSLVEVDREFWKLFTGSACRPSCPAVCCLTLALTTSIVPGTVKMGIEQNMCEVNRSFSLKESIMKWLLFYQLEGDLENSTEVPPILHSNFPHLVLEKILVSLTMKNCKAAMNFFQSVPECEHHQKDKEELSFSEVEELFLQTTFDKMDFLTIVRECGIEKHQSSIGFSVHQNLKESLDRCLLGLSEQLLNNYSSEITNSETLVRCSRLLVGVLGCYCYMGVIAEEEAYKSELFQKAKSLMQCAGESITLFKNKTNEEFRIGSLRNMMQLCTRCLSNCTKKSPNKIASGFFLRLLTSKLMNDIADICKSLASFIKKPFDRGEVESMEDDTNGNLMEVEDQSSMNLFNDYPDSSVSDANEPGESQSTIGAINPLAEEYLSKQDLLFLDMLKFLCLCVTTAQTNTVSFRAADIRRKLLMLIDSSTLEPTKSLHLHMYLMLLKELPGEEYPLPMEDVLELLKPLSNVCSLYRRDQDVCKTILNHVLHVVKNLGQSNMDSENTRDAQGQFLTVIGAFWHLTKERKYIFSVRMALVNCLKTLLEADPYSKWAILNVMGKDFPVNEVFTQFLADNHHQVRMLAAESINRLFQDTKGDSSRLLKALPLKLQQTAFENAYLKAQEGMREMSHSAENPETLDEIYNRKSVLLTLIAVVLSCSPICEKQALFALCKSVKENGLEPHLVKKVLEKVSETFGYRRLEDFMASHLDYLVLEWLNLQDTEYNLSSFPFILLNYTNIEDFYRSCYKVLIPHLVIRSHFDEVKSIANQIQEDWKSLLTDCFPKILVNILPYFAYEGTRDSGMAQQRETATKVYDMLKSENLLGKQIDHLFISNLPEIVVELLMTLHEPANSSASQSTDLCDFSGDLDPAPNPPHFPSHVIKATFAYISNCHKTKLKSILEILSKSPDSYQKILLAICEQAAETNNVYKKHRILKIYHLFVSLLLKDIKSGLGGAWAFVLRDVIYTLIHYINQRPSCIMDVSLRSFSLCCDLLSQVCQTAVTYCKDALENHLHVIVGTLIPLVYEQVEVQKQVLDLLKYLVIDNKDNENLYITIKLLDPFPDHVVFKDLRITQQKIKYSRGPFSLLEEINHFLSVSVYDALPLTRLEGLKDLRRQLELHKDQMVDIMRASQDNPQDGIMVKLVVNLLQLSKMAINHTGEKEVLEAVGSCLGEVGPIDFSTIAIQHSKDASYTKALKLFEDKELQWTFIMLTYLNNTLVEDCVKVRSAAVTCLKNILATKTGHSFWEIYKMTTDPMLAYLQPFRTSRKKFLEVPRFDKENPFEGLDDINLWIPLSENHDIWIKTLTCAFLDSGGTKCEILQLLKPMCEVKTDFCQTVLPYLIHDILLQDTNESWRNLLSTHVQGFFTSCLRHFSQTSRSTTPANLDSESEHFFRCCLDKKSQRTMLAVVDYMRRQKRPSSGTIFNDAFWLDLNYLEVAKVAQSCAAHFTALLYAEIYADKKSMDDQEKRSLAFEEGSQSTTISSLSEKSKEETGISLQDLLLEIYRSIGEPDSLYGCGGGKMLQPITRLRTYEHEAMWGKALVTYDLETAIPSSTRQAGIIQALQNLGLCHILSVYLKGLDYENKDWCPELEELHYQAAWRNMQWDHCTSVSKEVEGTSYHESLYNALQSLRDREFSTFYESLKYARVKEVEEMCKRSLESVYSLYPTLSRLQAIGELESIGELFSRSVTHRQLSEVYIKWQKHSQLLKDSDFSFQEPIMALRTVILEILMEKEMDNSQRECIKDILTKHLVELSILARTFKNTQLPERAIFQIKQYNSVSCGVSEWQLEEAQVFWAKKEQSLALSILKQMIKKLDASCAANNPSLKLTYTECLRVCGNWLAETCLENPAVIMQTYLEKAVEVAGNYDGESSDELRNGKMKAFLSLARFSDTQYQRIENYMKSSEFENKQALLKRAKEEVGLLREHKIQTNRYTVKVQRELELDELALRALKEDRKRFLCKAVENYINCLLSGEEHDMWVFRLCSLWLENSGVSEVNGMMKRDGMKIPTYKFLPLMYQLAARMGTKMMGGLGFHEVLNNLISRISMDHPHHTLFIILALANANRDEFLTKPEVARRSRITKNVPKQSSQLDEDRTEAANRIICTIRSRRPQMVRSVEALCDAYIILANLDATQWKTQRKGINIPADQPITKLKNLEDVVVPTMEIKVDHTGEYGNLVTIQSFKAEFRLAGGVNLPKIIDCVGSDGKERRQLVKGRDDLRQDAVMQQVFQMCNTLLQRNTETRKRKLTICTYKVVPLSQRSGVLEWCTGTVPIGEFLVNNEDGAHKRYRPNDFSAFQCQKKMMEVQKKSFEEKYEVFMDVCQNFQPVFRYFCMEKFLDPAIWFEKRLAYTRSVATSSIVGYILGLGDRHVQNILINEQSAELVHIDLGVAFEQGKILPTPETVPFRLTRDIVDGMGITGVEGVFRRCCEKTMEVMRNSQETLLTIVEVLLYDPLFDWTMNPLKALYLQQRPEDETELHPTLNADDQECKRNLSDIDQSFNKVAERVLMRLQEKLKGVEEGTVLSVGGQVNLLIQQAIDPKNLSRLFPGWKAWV

With Cn1c(=O)n2c3c4c(c(-c5ccc(OCCCN6CCCCC6)nc5)c(F)cc4ncc31)OCC2(C)C [Example A-6, 6-fluoro-2,10,10-trimethyl-7-(6-(3-(piperidin-1-yl)propoxy)pyridin-3-yl)-9,10-dihydro-8-oxa-2,4,10a-triazanaphtho[2,1,8-cde]azulen-1(2H)-one] the IC50 (ATM) was 0.37 nM, the “inhibitory effect on tumor volume and tumor weight, in words” value [1] was “higher than those of AZD1390” and the “D 16 TGI” value [1] was 100.4%. For the same compound, the “D 16 TV (MEAN ± SD)” value [1] was 163.8 ± 62.8***^### mm^3, the Tumor weight [1] was 0.12 ± 0.03 g and the “Tumor weight inhibitory rate” value [1] was 82.4%.
For CN(C)CCCOc1ccc(-c2c(F)cc3ncc4c5c3c2OCC(C)(C)n5c(=O)n4C)cn1 [Example A-46, 7-(6-(3-(dimethylamino)propoxy)pyridin-3-yl)-6-fluoro-2,10,10-trimethyl-9,10-dihydro-8-oxa-2,4,10a-triazanaphtho[2,1,8-cde]azulen-1(2H)-one], the IC50 (ATM) was 0.52 nM, the “inhibitory effect on tumor volume and tumor weight, in words” value [1] was “higher than those of AZD1390” and the “D 16 TGI” value [1] was 102.2%. The “D 16 TV (MEAN ± SD)” value [1] was 149.5 ± 67.4***^### mm^3, the Tumor weight [1] was 0.12 ± 0.06 g and the “Tumor weight inhibitory rate” value [1] was 82.0%.
For CC[C@H]1COc2c(-c3ccc(OCCCN(C)C)nc3)ccc3ncc4c(c23)n1c(=O)n4C [Example A-189, (S)-7-(6-(3-(dimethylamino)propoxy)pyridin-3-yl)-10-ethyl-2-methyl-9,10-dihydro-8-oxa-2,4,10a-triazanaphtho[2,1,8-cde]azulen-1(2H)-one], the IC50 (ATM) was 0.38 nM.
C[C@H]1CNc2c(-c3ccc(OCCCN4CCCCC4)nc3)c(F)cc3ncc4c(c23)n1c(=O)n4C [Example A-191, (S)-6-fluoro-2,10-dimethyl-7-(6-(3-(piperidin-1-yl)propoxy)pyridin-3-yl)-2,8,9,10-tetrahydro-1H-2,4,8,10a-tetraazanaphtho[2,1,8-cde]azulen-1(2H)-one] was tested, and the IC50 (ATM) was 0.69 nM, the “D 17 TGI” value [2, 3] was 76.9% and the “D 17 TV (MEAN ± SD)” value [2, 3] was 347 ± 64***^ mm^3.
Cn1c(=O)n2c3c4c(c(-c5ccc(OCCCN6CCCCC6)nc5)c(F)cc4ncc31)NCC21CCC1 [Example A-192, 6-fluoro-2-methyl-7-(6-(3-(piperidin-1-yl)propoxy)pyridin-3-yl)-8,9-dihydrospiro[2,4,8,10a-tetraazanaphtho[2,1,8-cde]azulene-10,1′-cyclobutan]-1(2H)-one] was tested, and the IC50 (ATM) was 0.53 nM, the IC50 (ATM-phosphorylated KAP1; Homo sapiens, light or radiation study) was 1.44 nM and the “D 17 TGI” value [2, 4] was 79.6%. For the same compound, the “D 17 TV (MEAN ± SD)” value [2, 4] was 323 ± 114***^# mm^3.
Compound C[C@@H]1CNc2c(-c3ccc(OCCCN4CCCCC4)nc3)c(F)cc3ncc4c(c23)n1c(=O)n4C [Example A-195, (R)-6-fluoro-2,10-dimethyl-7-(6-(3-(piperidin-1-yl)propoxy)pyridin-3-yl)-2,8,9,10-tetrahydro-1H-2,4,8,10a-tetraazanaphtho[2,1,8-cde]azulen-1(2H)-one] has an IC50 (ATM) of 0.41 nM.
In the case of CC[C@H]1CNc2c(-c3ccc(OCCCN4CCCCC4)nc3)c(F)cc3ncc4c(c23)n1c(=O)n4C [Example A-196, (S)-10-ethyl-6-fluoro-2-methyl-7-(6-(3-(piperidin-1-yl)propoxy)pyridin-3-yl)-2,8,9,10-tetrahydro-1H-2,4,8,10a-tetraazanaphtho[2,1,8-cde]azulen-1(2H)-one], the IC50 (ATM) is reported as 0.51 nM.
C[C@@H]1CNc2c(-c3ccc(OCCCN4CCCCC4)nc3)ccc3ncc4c(c23)n1c(=O)n4C [Example A-199, (R)-2,10-dimethyl-7-(6-(3-(piperidin-1-yl)propoxy)pyridin-3-yl)-2,8,9,10-tetrahydro-1H-2,4,8,10a-tetraazanaphtho[2,1,8-cde]azulen-1(2H)-one] showed an IC50 (ATM) of 0.92 nM and an IC50 (ATM-phosphorylated KAP1) of 0.78 nM.
Cn1c(=O)n2c3c4c(c(-c5ccc(OCCCN6CCCCC6)nc5)ccc4ncc31)NCC21CCC1 [Example A-202, 2-methyl-7-(6-(3-(piperidin-1-yl)propoxy)pyridin-3-yl)-8,9-dihydrospiro[2,4,8,10a-tetraazanaphtho[2,1,8-cde]azulene-10,1′-cyclobutan]-1(2H)-one] showed an IC50 (ATM) of 0.23 nM.
C[C@H]1COc2c(-c3ccc(OCCCN4CCC(C)(C)CC4)nc3)ccc3ncc4c(c23)n1c(=O)n4C [Example A-207, (S)-7-(6-(3-(4,4-dimethylpiperidin-1-yl)propoxy)pyridin-3-yl)-2,10-dimethyl-9,10-dihydro-8-oxa-2,4,10a-triazanaphtho[2,1,8-cde]azulen-1(2H)-one] gave an IC50 (ATM) of 0.44 nM.
For CC1CCN(CCCOc2ccc(-c3ccc4ncc5c6c4c3OC[C@H](C)n6c(=O)n5C)cn2)CC1 [Example A-208, (S)-2,10-dimethyl-7-(6-(3-(4-methylpiperidin-1-yl)propoxy)pyridin-3-yl)-9,10-dihydro-8-oxa-2,4,10a-triazanaphtho[2,1,8-cde]azulen-1(2H)-one], the IC50 (ATM) was 0.29 nM.
